Counter-ions that a name gives are not always drawn.
How the values were obtained:
[1] = test system: AAV8 production in Viral Production 2.0 cells (293-VP 2.0); assay: AAV8 production by transient transfection, genome titer by dPCR; type: cell-based, human
Description: Candidate small molecules were selected via literature-based searches and encompassed general classes of epigenetic modifiers, PI3K inhibitors, cell cycle modulators, innate immune activators/inhibitors, proteosome inhibitors, kinase inhibitors, free fatty acids, endoplasmic reticulum stress inducers/inhibitors, and autophagy activators/inhibitors. Various candidate small molecule were analyzed in AAV2 or AAV8 production. The initial test concentrations of each small molecule were determined by previous uses of the molecules found in the literature for a variety of applications. For each candidate small molecule, cells were triple transfected with three plasmids encoding the rep/cap genes, gene of interest flanked by […] terminal repeats (ITR) and adenovirus helper molecules. The rep/cap plasmid encoded either AAV2 or AAV8 capsids. The plasmid DNA (pDNA) was combined with the TransIT-VirusGEN® transfection reagent and added to 293-derived suspension cells. The cells were then immediately treated with the small molecule. AAV production occurred over the course of 72 hours, after which virus was harvested. Genomes were assessed by digital PCR (dPCR), and capsids by a specific ELISA or homogeneous based luciferase assay utilizing capsid specific antibodies. The percentage of full capsids was calculated by dividing the total number of genomes by the total number of capsids. A small molecule was considered a successful enhancer of AAV production if it increased AAV as measured by viral genomes 1.5-fold over an untreated control and was not detrimental to the percentage of full capsids, or if it increased the percentage of full capsids 1.5-fold over an untreated control and was not detrimental to the total number of produced AAV as measured by viral genomes. The experimental design may identify small molecules that enhance AAV production.
Viral Production Cells 2.0 (293-VP 2.0; Thermo Fisher Cat. No. A49784) were maintained in Viral Production Media (VPM; Thermo Fisher Cat. No. A4817901) supplemented with 4 mM GlutaMAX™ (Thermo Fisher Cat. No. 35050061). Expi293F™ Cells (Thermo Fisher Cat. No. A14527) were maintained in Expi293™ Expression Medium (Thermo Fisher Cat. No. A1435101). Both cell lines were maintained at the supplier recommended 8% CO2 and 37° C. on a 2.5 cm orbital shaker at 125 rpm.
The day before transfection, cells were passaged to ensure the cells were actively dividing and would reach a density of 4.0-5.0×10^6 cells/mL the day of transfection. The day of transfection, cells were seeded in 6-well non-tissue culture treated plates (Corning, Cat. No. 351146) at a density of 3.0×10^6 cells/mL. A 1 mg/mL DNA solution composed of a 1:1:1 plasmid concentration ratio of a transfer vector (Agilent, Cat. No. 240074-51), an AAV2 RepCap Vector (Aldevron, Cat. No. pALD-AAV2) or an AAV5 RepCap Vector (Aldevron, Cat. No. pALD-AAV5) or an AAV8 RepCap vector (Genemedi, Cat. No. P-RC09) or an AAV9 RepCap vector (Genemedi, Cat. No. p-RC13), and a helper vector (Agilent Cat. No. 240071-54) was formed in water. For each milliliter of culture, 3 μL of TransIT-VirusGEN® (Mirus Bio LLC, Cat. No. MIR 6700) and 2 μg of DNA were added to a final volume of 100 μL Phosphate-buffered saline (PBS; Corning, Cat. No. 21-040-CV) for a final transfection reagent to DNA ratio of 1.5:1. This mixture was incubated at room temperature for 30 minutes to allow transfection complexes to form, after which 100 μL was added per milliliter of culture for a final complexation volume of 10%. In some instances, cells were transfected with 1 μL FectoVIR®-AAV (Polyplus, Cat. No. 101000044) per million cells and 1 μg DNA per million cells for a final transfection reagent to DNA ratio of 1:1, and a final complexation volume of 5%. In some instances, cells were transfected with 1 μL PEIPro® (Polyplus, Cat. No. 101000017) per million cells and 1 μg DNA per million cells for a final transfection reagent to DNA ratio of 1:1, and a final complexation volume of 10%. […]

[2] = test system: AAV2 or AAV8 production in 293-derived suspension cells; assay: cells; type: cell-based, human
Description: Various candidate small molecule were analyzed in AAV2 or AAV8 production. […] For each candidate small molecule, cells were triple transfected with three plasmids encoding the rep/cap genes, gene of interest flanked by internal terminal repeats (ITR) and adenovirus helper molecules. The rep/cap plasmid encoded either AAV2 or AAV8 capsids. The plasmid DNA (pDNA) was combined with the TransIT-VirusGEN® transfection reagent and added to 293-derived suspension cells. The cells were then immediately treated with the small molecule. AAV production occurred over the course of 72 hours, after which virus was harvested. Genomes were assessed by digital PCR (dPCR), and capsids by a specific ELISA or homogeneous based luciferase assay utilizing capsid specific antibodies. The percentage of full capsids was calculated by dividing the total number of genomes by the total number of capsids. A small molecule was considered a successful enhancer of AAV production if it increased AAV as measured by viral genomes 1.5-fold over an untreated control and was not detrimental to the percentage of full capsids, or if it increased the percentage of full capsids 1.5-fold over an untreated control and was not detrimental to the total number of produced AAV as measured by viral genomes. […]

[3] = from about 0.5 μM to about 40 μM

## CC[C@@H]1C(=O)N(C)c2cnc(Nc3ccc(C(=O)NC4CCN(C)CC4)cc3OC)nc2N1C1CCCC1 [Compound A, (R)-4-((8-cyclopentyl-7-ethyl-5-methyl-6-oxo-5,6,7,8-tetrahydropteridin-2-yl)amino)-3-methoxy-N-(1-methylpiperidin-4-yl)benzamide]
[1]; from about 0.025 μM to about 1 μM
  Successful enhancer of AAV8 production (genomes or % full capsids 1.5-fold over untreated control): Successful enhancers

## CN[C@H]1CCc2cc(OC)c(OC)c(OC)c2-c2ccc(OC)c(=O)cc21 [Compound B, (S)-1,2,3,10-tetramethoxy-7-(methylamino)-6,7-dihydrobenzo[a]heptalen-9 (5H)-one]
[1]; from about 0.0673 μM to about 0.2019 μM
  Successful enhancer of AAV8 production (genomes or % full capsids 1.5-fold over untreated control): Successful enhancers

## CC(=O)O[C@@]12CO[C@@H]1C[C@H](O)[C@@]1(C)C(=O)[C@H](O)C3=C(C)[C@@H](OC(=O)[C@H](O)[C@@H](NC(=O)OC(C)(C)C)c4ccccc4)C[C@@](O)([C@@H](OC(=O)c4ccccc4)[C@H]21)C3(C)C [Compound C, [(1S,2S,3R,4S,7R,9S, 10S, 12R, 15S)-4-acetyloxy-1,9,12-trihydroxy-15-[(2R,3S)-2-hydroxy-3-[(2-methylpropan-2-yl)oxycarbonylamino]-3-phenylpropanoyl]oxy-10,14,17,17-tetramethyl-11-oxo-6-oxatetracyclo[11.3.1.0^3,10.0^4,7]heptadec-13-en-2-yl]benzoate]
[1]; from 1 μM to about 20 μM
  Successful enhancer of AAV8 production (genomes or % full capsids 1.5-fold over untreated control): Successful enhancers
[1]; from about 1 μM to about 20 μM
  Increase in AAV8 titers ("Top Hits"): highest increase in AAV8 titers

## CCn1cc(-c2ccnc3[nH]c(-c4cccc(CN(C)C)c4)cc23)c(-c2ccc(NC(=O)N(C)C)cc2)n1 [Compound D, 3-(4-(4-(2-(3-((dimethylamino)methyl)phenyl)-1H-pyrrolo[2,3-b]pyridin-4-yl)-1-ethyl-1H-pyrazol-3-yl)phenyl)-1,1-dimethylurea]
[2]; Homo sapiens, 72 h, read-out: Fold increase in genomes over no enhancer control
  fold induction at 0.05 µM: 1.57 to 1.91
[1]; about 0.05 μM
  Successful enhancer of AAV8 production (genomes or % full capsids 1.5-fold over untreated control): Successful enhancers

## CC(=O)O[C@H]1C(=O)[C@@]2(C)[C@H]([C@H](OC(=O)c3ccccc3)[C@]3(O)C[C@H](OC(=O)[C@H](O)[C@@H](NC(=O)c4ccccc4)c4ccccc4)C(C)=C1C3(C)C)[C@]1(OC(C)=O)CO[C@@H]1C[C@@H]2O [Compound F, [(1S,2S,3R,4S,7R,9S,10S,12R, 15S)-4,12-diacetyloxy-15-[(2R,3S)-3-benzamido-2-hydroxy-3-phenylpropanoyl]oxy-1,9-dihydroxy-10,14,17,17-tetramethyl-11-oxo-6-oxatetracyclo[11.3.1.0^3,10.0^4,7]heptadec-13-en-2-yl]benzoate]
[1]; [3]
  Increase in AAV8 titers ("Top Hits"): highest increase in AAV8 titers
  Successful enhancer of AAV8 production (genomes or % full capsids 1.5-fold over untreated control): Successful enhancers

## CC(=O)NCC(=O)N1[C@@H]2CC[C@H]1c1ccc(Nc3ncc(C(F)(F)F)c(NC4CCC4)n3)cc12 [Compound G, N-[2-[(1R,8S)-4-[[4-(cyclobutylamino)-5-(trifluoromethyl)pyrimidin-2-yl]amino]-11-azatricyclo[6.2.1.0^2,7]undeca-2 (7),3,5-trien-11-yl]-2-oxoethyl]acetamide]
[1]; from about 0.02 μM to about 0.5 μM
  Successful enhancer of AAV8 production (genomes or % full capsids 1.5-fold over untreated control): Successful enhancers

## O=C(CCCCCCC(=O)Nc1ccccc1)NO [SAHA, suberoylanilide hydroxamic acid]
[1]; from about 0.5 μM to about 1 μM
  Successful enhancer of AAV8 production (genomes or % full capsids 1.5-fold over untreated control): Successful enhancers

## CCC(=O)[O-].[Na+] [Sodium Propionate]
[2]; 5000 μM-10000 μM
  Fold increase in genomes over no enhancer control: 1.20-1.48 fold

## CCCC(CCC)C(=O)[O-].[Na+] [Valproic Acid Sodium Salt]
[1]; from about 400 μM to about 2500 μM
  Successful enhancer of AAV8 production (genomes or % full capsids 1.5-fold over untreated control): Successful enhancers

## CC[C@]1(O)C[C@@H]2CN(CCc3c([nH]c4ccccc34)[C@@](C(=O)OC)(c3cc4c(cc3OC)N(C)[C@H]3[C@@](O)(C(=O)OC)[C@H](OC(C)=O)[C@]5(CC)C=CCN6CC[C@]43[C@@H]65)C2)C1 [Vinblastine Sulfate]
[1]; from about 2.5 μM to about 15 μM
  Successful enhancer of AAV8 production (genomes or % full capsids 1.5-fold over untreated control): Successful enhancers
